# Measured values reported in patent US20160354333A1, “COMPOSITIONS OF POLYUNSATURATED FATTY ACIDS AND METHODS OF USE THEREOF” (UND Life Sciences, LLC, priority 2015, published 2016).
# Read-outs that look alike come from different tables or passages of the source.
# What was measured:
# [1] = test system: IFN-sensitive / IFN-resistant tumor cells; experiment: Apoptosis and lipid droplet accumulation in IFN-sensitive and IFN-resistant tumor cells; format: cell-based; conditions: IFN-resistant cells pre-treated with GLA/AA, then exposed to IFN
# From the text: The present inventor also unexpectedly discovered that the anti-cancer actions of interferon (IFN) and tumor necrosis factor-a (TNF-a) need the presence of substantial amounts of cellular content of GLA, AA, EPA and DHA (˜GLA≧AA>EPA>DHA).
# [2] = test system: bone marrow cells of mice; experiment: Side effects of gamma-radiation and cis-platinum on bone marrow cells of mice; format: in vivo
# From the text: Thus, it appears that when PUFAs and conventional anti-cancer drugs/agents are given together they not only act to potentiate the cytotoxic action of each other on the tumor cells and thus, produce synergistic and/or additive action on their ability to eliminate the tumor cells but it will also lead to elimination, reduction, or amelioration of the side effects of conventional anti-cancer agents. Since, PUFAs are able to potentiate the cytotoxic action(s) of conventional anti-cancer drugs (agents) and cytokines; it is also possible that this will lead to a significant reduction in the doses of these latter agents without compromising the ultimate benefit namely, elimination of tumor cells or the tumor. Accordingly, certain embodiments are directed to methods comprising administering a PUFA (e.g., GLA) containing compositions as described herein and a conventional anti-cancer drug to a subject in need thereof.
# tumor cells [3] = experiment: Tumoricidal action: ability to induce apoptosis of tumor cells; format: cell-based
# From the text: For instance, GLA is metabolized in the tumor cells to form 15-, 12- and 8-OH 20 carbon and 13-OH 18 carbon fatty acid derivatives that seem to be responsible for the apoptosis of tumor cells. In contrast to this, DGLA could go through an exclusive C-8 oxygenation pathway during COX-catalyzed lipid peroxidation in addition to a C-15 oxygenation pathway shared by both DGLA and AA, and that the exclusive C-8 oxygenation could lead to the production of distinct DGLA's free radical derivatives that may be correlated with DGLA's anti-proliferation activity. As shown below DGLA can go through a unique C-8 oxygenation reaction pathway, in addition to a C-15 oxygenation pathway shared by both DGLA and AA.
# similar to the one that is formed from DGLA as described above) product, instead of the more common aldehyde. Thus, it is evident that the peroxidation products formed from GLA, DGLA and AA are totally different, and this may account for the differences in their tumoricidal action wherein GLA>DGA>AA with regard to their ability to induce apoptosis of tumor cells.
# [4] = 1 mg GLA, 0.01% ethanol PBS/saline; GLA:lithium ratio exceeding about 1:0.01
# Protocol: The effect of lithium as an exemplary stabilizing agent in compositions of GLA was tested as follows. To 1 mg (1000 μg) of GLA dissolved in a solution of PBS/saline comprising 0.01% ethanol was added different concentrations of lithium (as lithium chloride), and after a specific period of incubation the concentration of GLA present in the solution was tested.
# [5] = Protocol: In a separate experiment, GLA was dissolved in saline/PBS (pH 7.4) comprising 0.01% ethanol at 37° C. or saline/PBS (pH 7.4), and different concentrations of lithium was added. At the end of the incubation time the concentration of GLA present was tested. […] The same test system is used to test the effect of Mg, Mn, Zn, Fe, Cu salts on the stability of GLA. The concentrations of these metals used are same as that of Lithium.
# [6] = 0.01% ethanol/saline/PBS pH 7.4 at 37° C. versus saline/PBS, no lithium
# From the text: FIG. 7 is additional stability data for GLA solutions comprising 0.01% ethanol/saline/PBS or saline/PBS without added lithium.
# normal cells = conditions: 10 μg/ml GLA, 1×10^4 cells, 72 hrs
# From the text: FIG. 9 provides cytotoxicity data in normal cells for GLA solutions in varying concentrations of ethanol.
# cancer = conditions: free acid form versus other forms
# From the text: In general, it was believed that the potency of actions of a free acid form is equal to or similar to sodium salt, ethyl ester, methyl ester or other forms of salts, esters, glycerides, amides, or phospholipids, or alkylated, alkoxylated, halogenated, sulfonated, or phosphorylated forms of the fatty acid.
# cancer cells = conditions: 72 hrs
# Protocol: 1×10^4 cancer cells or normal cells were incubated with the GLA composition for 72 hrs and viability of the cells in vitro determined.
# tumor cells [7] = conditions: solvent (ethyl alcohol) content above 0.01% and lower than 0.001%
# IMR-32 cells = experiment: Growth of IMR-32 cells; format: cell-based; parameters: unit of the concentration uncertain
# From the text: hypercalcemia, tumor cancer cell proliferation, tumor angiogenesis and resistance of tumor to anti-VEGF therapy (see FIG. 1). In addition, PGE2 may have the ability to modulate NO generation. […] Though this growth promoting action of indomethacin and NDGA could be attributed to their non-specific anti-oxidant actions, it is equally possible that some unknown products have been generated from PUFAs that have growth promoting actions. […] Accordingly, treatment of tumor cells with PUFAs according to embodiments of the invention is believed to be a viable treatment method for cancers, such as glioma.
compound,measurement,setting,value
"CCCCC/C=C\C/C=C\C/C=C\C/C=C\CCCC(=O)O [AA, arachidonic acid, reference compound]",apoptosis and lipid droplets,[1],both induction of apoptosis and accumulation of lipid droplets in the tumor cells were seen
same,side effects of gamma-radiation and cis-platinum to bone marrow cells,[2],prevent or ameliorate the side effects
same,rank order of ability to induce apoptosis of tumor cells,tumor cells [3],GLA>DGA>AA
"CCCCC/C=C\C/C=C\C/C=C\CCCCCCC(=O)O [DGLA, di-homo gamma linolenic acid]",rank order of ability to induce apoptosis of tumor cells,tumor cells [3],GLA>DGA>AA
"CCCCC/C=C\C/C=C\C/C=C\CCCCC(=O)O [GLA, gamma-linolenic acid]",stability of GLA (percentage of original GLA remaining),[4],stability of GLA decreased
same,concentration of GLA relative to lithium,"[5]; Mg, Mn, Zn, Fe, Cu salts, same concentrations and incubation periods as lithium",decrease the concentration of GLA
same,stability of GLA (percentage of original GLA remaining),"[5]; comparison solutions, printed as 'solutions with ethanol'",less stable
same,stability of GLA (percentage of original GLA remaining),[5]; saline/PBS pH 7.4 with 0.01% ethanol at 37° C. plus lithium,stabilizing effect
same,stability of GLA (percentage of original GLA remaining),[6],stabilizing effect
same,background death of cells,normal cells,10-15%
same,apoptosis and lipid droplets,[1],both induction of apoptosis and accumulation of lipid droplets in the tumor cells were seen
same,side effects of gamma-radiation and cis-platinum to bone marrow cells,[2],prevent or ameliorate the side effects
same,rank order of ability to induce apoptosis of tumor cells,tumor cells [3],GLA>DGA>AA
same,potency of anti-cancer action,cancer,"more potent than sodium salt, ethyl ester, methyl ester"
same,generation of LXA4,"RIN cells; PUFAs 15 μg, pretreatment with alloxan, simultaneous treatment with STZ",greater than or equal to all other fatty acids tested
same,formation of LXA4,RIN cells; studies performed in support of the invention,enhances the formation of LXA4
same,background death of cells,"cancer cells; 10 μg/ml GLA, 1×10^4 cells",10-15%
same,"activity, stability and tumoricidal action",tumor cells [7],"relatively inactive, unstable and its tumoricidal action inefficient"
CCCCC/C=C\C\C=C/C=C/C=C/[C@@H](SC[C@H](N)C(=O)NCC(=O)O)[C@@H](O)CCCC(=O)O [LTD4],growth of IMR-32 cells,IMR-32 cells,growth inhibitory action
CCCCC[C@H](O)/C=C/C=C\C=C\C=C\[C@@H](O)[C@@H](O)CCCC(=O)O [LXA4],growth of IMR-32 cells,IMR-32 cells,inhibited the growth of IMR-32 cells
CCCCC[C@H](O)/C=C/[C@H]1[C@H](O)CC(=O)[C@@H]1CCCCCCC(=O)O [PGE1],growth of IMR-32 cells,IMR-32 cells,growth inhibitory action
CCCCC[C@H](O)/C=C/[C@H]1[C@H](O)CC(=O)[C@@H]1C/C=C\CCCC(=O)O [PGE2],growth of IMR-32 cells,IMR-32 cells,growth inhibitory action
CCO [ethanol],concentration of ethanol resulting in cell death,cancer cells; with 10 μg/ml GLA in saline/PBS,above 0.01%
COc1ccc2c(c1)c(CC(=O)O)c(C)n2C(=O)c1ccc(Cl)cc1 [indomethacin],growth of IMR-32 cells,IMR-32 cells; 60 (unit uncertain),enhanced the growth of IMR-32 cells
CC(Cc1ccc(O)c(O)c1)C(C)Cc1ccc(O)c(O)c1 (stereo not shown) [nordihydroguaiaretic acid],growth of IMR-32 cells,IMR-32 cells; 20 (unit uncertain),enhanced the growth of IMR-32 cells
